Source: paper PMC5589090 (PLoS Medicine, 2017)
Like-named read-outs stand apart in the source and are kept apart here.

Columns and labels:
[1] = cited from earlier work
[2] = read-out: decitabine Cmax; 15 mg/m^2 IV over 3 hours Q8 hrs D1-3 or 20 mg/m^2 IV over 1 hour D1-5; ref 105;108;109; cited from earlier work
[3] = system: normal CD34+ hematopoietic stem and progenitor cells; details: cited from earlier work
[4] = system: L5178Y mouse lymphoma cells; parameters: method as in ref 75 (a number printed in a supplementary file, which may have a reference list of its own: not looked up in the article's list); details: cited from earlier work
[5] = human starting dose 0.01 mg/kg
Experimental: To ensure safety in case of this possibility, decitabine pharmacokinetics are measured after single dose oral administration of decitabine and THU.

[6] = Decitabine plasma pharmacokinetics by LCMS/MS after first oral THU-decitabine dose; type: in vivo, human; details: for Cmax: first dose
Experimental: Blood samples were drawn over a period of less than 1 minute into tubes pre-loaded with heparin and THU 10 μg/ml (to prevent in vitro metabolism by CDA) and immediately transferred onto ice. Samples were then centrifuged as soon as possible at 600 g for 5 minutes at 4°C. […] Pharmacokinetic data were analyzed using non-compartmental methods or a 2-compartment model with instantaneous/intravenous input using the R package PKLMfit. […] The AUClast (the area under the curve from the time of dosing to the last measurable concentration) was calculated by the linear trapezoidal method.
Samples will be processed immediately by centrifugation at 3000 × g for 5 min in a refrigerated centrifuge. […] To increase stability, tetrahydrouridine (THU), a cytidine deaminase inhibitor, will be added to the plasma supernatant at a final concentration of 100 μM immediately after centrifugation. Plasma (300 μL) will be then aliquoted into two tubes with the remaining plasma in a third tube. The plasma will be immediately frozen at −80 °C until analysis. All samples will be sent to Jiang Wang, PhASR at The Ohio State University for processing (appendix B).
The chromatographic separation will be performed on a 250 mm × 2.0 mm i.d., 4.0 μm, C18 column (YMC Co. Ltd., Kyoto, Japan) and a 20 mm × 2.1 mm i.d., 3.5 μm, C18 guard column (Waters Xterra RP18, Waters Corporation, Milford, MA, USA) kept at room temperature. The mobile phase used for chromatographic separation will be composed of 2 mM ammonium acetate containing 0.1% formic acid and methanol, and is delivered using a gradient flow. The mass spectrometer is equipped with an electrospray interface, which will be operated in a positive mode, and controlled by the completely validated Masslynx software (Waters Corporation, Milford, MA, USA). […] The analytical method is currently under development and validation according to the ICH Guideline (ICH Harmonized Tripartite Guideline. Validation of Analytical Procedures: Text and Methodology. Q2(R1). Incorporated in November, 2005) in the laboratory of Dr. Lyubimov (Toxicology Research Laboratory, TRL). Method specificity, linearity, range, accuracy, precision and detection limit will be established and validated. In addition, short-term, long-term and freezing/towing stability will be determined. All sample collection, handling and analysis procedures will be performed according to GLP and GCP requirements. All data and the report will be audited by the Quality Assurance Officer at TRL.
PK analysis: PK analysis will be performed using the Winnonlin software (version 5.0.1, Pharsight NC) and will include the determination of maximum plasma concentration (Cmax), time to maximum plasma concentration (Tmax), area under the plasma concentration-versus-time curve from time zero to last measurable plasma concentration (AUC0-t). The terminal rate constant ( [picture] z) will be determined from the slope of the terminal phase of the plasma concentration-time curve using uniform weight. The terminal half-life (T1/2) will be calculated as 0.693 divided by [picture] z. Area under the concentration-time curve (AUC) will be calculated using the log/linear trapezoidal rule. The AUC will be extrapolated to infinity (AUC0– [picture] ) by using the equation, AUC0– [picture] = AUC0–t + Clast/ [picture] z, where Clast will be the final quantifiable concentration.

[7] = system: 8 melanoma cell lines; parameters: method as in ref 21 (a number printed in a supplementary file, which may have a reference list of its own: not looked up in the article's list); details: two daily treatments 0.2 µM; cited from earlier work
[8] = system: cancers; parameters: method as in ref 94 (a number printed in a supplementary file, which may have a reference list of its own: not looked up in the article's list); details: cited from earlier work
[9] = cited from earlier work; remark: listed apart in the source
[10] = system: LINE-1 repetitive element CpG; assay: Methylation level of LINE-1 repetitive element CpG by pyrosequencing in PBMC; type: in vivo, human
Experimental: DNA was purified from peripheral blood mononuclear cells (isolated by Ficoll-Hypaque density centrifugation) using the Wizard Genomic DNA Purification Kit (Promega). DNA was bisulfite-converted using EZ DNA Lightning Methylation kit (Zymo Research). The PCR primers were 10 pmol of 5′- […]-3′ and 10 pmol of biotinylated-5′-[…]-3′. PCR cycling conditions were: cycle temperature of 94°C for 30 seconds, 60°C for 30 seconds, and 72°C for 30 seconds, for 45 cycles to consume all the biotinylated primers. The biotinylated strand was captured on streptavidin sepharose beads (Amersham Biosciences, Uppsala, Sweden) and annealed with the sequencing primer 5′-[…]-3′. The methylation degree of long interspersed nuclear elements (LINE-1) was computed at 3 CpG sites pyrosequenced with the Pyromark Q24 Pyrosequencer (Qiagen) using the dispensation order […].

[11] = cited from earlier work; remark: listed apart in the source
[12] = two daily treatments 0.5 µM, ref Investigators Brochure

Q: For `Nc1ncn([C@H]2C[C@H](O)[C@@H](CO)O2)c(=O)n1` [decitabine, 5-aza-2’-deoxycytidine], which stability in plasma ([1]; hydrolysis and cytidine deaminase) is on record?
A: very unstable in plasma

Q: And the “hydrolysis in aqueous solution every 7 hours” value ([1]; pH 7.4, 4 °C)?
A: approximately 2.5%

Q: And the Cmax [2]?
A: ≤ 2700 nM

Q: And the “level that causes measurable DNA damage and apoptosis/cytotoxicity” value ([3]; peak drug level)?
A: > 1000 nM

Q: And the DNMT1 depletion [3, 12]?
A: substantially depleted DNMT1

Q: What about the “phospho-H2AX, DNA scission or apoptosis” value [3, 12] of the same compound?
A: did not increase phospho-H2AX, DNA scission or apoptosis

Q: What about the “mutations as measured by 6TG resistance” value [4] of the same compound?
A: did not produce mutations

Q: What about the “mutations as measured by tri-fluorothymidine resistance” value ([4]; thymidine kinase locus) of the same compound?
A: did induce mutations

Q: And the “expected Cmax lower than Cmax […] with reversible toxicity in murine toxicology studies” value [5]?
A: 3,920 fold

Q: What about the Cmax ([6]; human, plasma, po, decitabine plasma concentration, Cmax, oral decitabine 0.08 mg/kg (cohort 4) 60 min after oral THU 10 mg/kg) of the same compound?
A: 9 to 21 nM

Q: What about the Cmax ([6]; human, plasma, po, decitabine plasma concentration, Cmax, oral decitabine […] (cohort 5) 60 min after oral THU 10 mg/kg, at 2 hours) of the same compound?
A: ~50 nM

Q: What about the “decitabine detected in the plasma” value ([6]; lowest oral decitabine dose level 0.01 mg/kg after oral THU 10 mg/kg) of the same compound?
A: detected

Q: And the “decitabine Tmax” value ([6]; oral decitabine 60 minutes after THU 10 mg/kg)?
A: hours

Q: What about the Cmax ([6]; read-out: decitabine plasma concentration, Cmax, oral decitabine […] (cohort 5) 60 min after oral THU 10 mg/kg, at 2 hours) of the same compound?
A: 39 to 54 nM

Q: And the “DNA damage (H2AX, CHK1, p53 phosphorylation, BAX, GADD45, comet assay)” value [7]?
A: did not cause DNA damage

Q: What about the “decrease of the incidence of cancers” value [8] of the same compound?
A: 30%

Q: And the “plasma t ½” value ([9]; Fig 1C, decitabine alone)?
A: < 15 min

Q: What about the “decitabine half-life in vivo” value ([9]; abbreviated by CDA, ref 27;28) of the same compound?
A: < 20 min

Q: And the oral bioavailability ([9]; decitabine alone)?
A: negligible

Q: And the plasma half-life ([9]; decitabine alone)?
A: only minutes

Q: And the Cmax ([9]; read-out: Cmax that correlates with nucleotide pool imbalance, DNA-damage, and cytotoxicity)?
A: > 500 nM

Q: What about the “LINE-1 repetitive element CpG methylation decrease in PBMC” value ([10]; decitabine […] (cohort 5) after THU 10 mg/kg 2X/week) of the same compound?
A: approximately 10%

Q: And the “LINE-1 CpG methylation decrease in PBMC” value ([10]; lower decitabine doses (cohorts 1-4))?
A: not with lower decitabine doses

Q: And the tolerability ([11]; 124 MDS subjects)?
A: well tolerated

Q: What about the major cytogenetic responses ([11]; MDS subjects with abnormal cytogenetics, 40-50 mg/m^2 3X/wk, courses every 6-8 weeks) of the same compound?
A: 31%

Q: And the “unusual patterns of cytogenetic instabilities” value ([11]; MDS subjects)?
A: no unusual patterns of cytogenetic instabilities were found

Q: What about the treatment related deaths ([11]; MDS, 45 mg/m^2/day for 3 days every 6 weeks, ref Saba et al, 2004) of the same compound?
A: no treatment related deaths

Q: What about the secondary malignancies ([11]; over 1,000 patients with hematologic or solid tumors) of the same compound?
A: no reports of secondary malignancies

Q: What about the “side effects of chronic metronomic very-low-dose decitabine” value ([11]; patients with myeloid malignancies, treated for years) of the same compound?
A: without significant side effects
